From PMC8429728, “TNK1 is a ubiquitin-binding and 14-3-3-regulated kinase that can be targeted to block tumor growth” (Nature Communications, 2021)
Where two headings read alike, the source gives them in different places.

What was measured:
Assay in all cases: biochemical
Set-up in all cases: Reaction Biology 371-kinase panel at Km ATP, per cent enzyme activity relative to DMSO, single dose in duplicate
Conditions in all cases: duplicate measurements, Km ATP
SRMS = SRMS (Homo sapiens, UniProt Q9H3Y6)
In short: (§1)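 First, kinases from a 371-member panel were exposed in vitro to 300 nM inhibitor. Next, % enzyme activity versus DMSO was computed. Finally, IC50s were derived by sigmoidal dose-response fitting with variable slope and a zero bottom constraint.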

CDK1/cyclin E = CDK1/cyclin E (Homo sapiens, UniProt P06493)
In short: as §1

JAK3 = JAK3 (Homo sapiens, UniProt P52333)
In short: as §1

BMX/ETK = BMX/ETK (Homo sapiens, UniProt P51813)
In short: as §1

MEK2 = biological target: T1, MEK2 (Homo sapiens, UniProt P36507)
T1 construct: gene MAP2K2
In short: as §1

CDK6/cyclin D3 = CDK6/cyclin D3 (Homo sapiens, UniProt Q00534)
In short: as §1

PHKg1 = PHKg1 (Homo sapiens, UniProt Q16816)
In short: as §1

DYRK2 = DYRK2 (Homo sapiens, UniProt Q92630)
In short: as §1

ACK1 = biological target: T2, ACK1 (Homo sapiens, UniProt Q07912)
T2 construct: gene TNK2
In short: as §1

WEE1 = WEE1 (Homo sapiens, UniProt P30291)
In short: as §1

PKCa = biological target: T3, PKCa (Homo sapiens, UniProt P17252)
T3 construct: gene PRKCA
In short: as §1

ITK = ITK (Homo sapiens, UniProt Q08881)
In short: as §1

CAMKK1 = CAMKK1 (Homo sapiens, UniProt Q8N5S9)
In short: as §1

MYO3b = MYO3b (Homo sapiens, UniProt Q8WXR4)
In short: as §1

ULK3 = ULK3 (Homo sapiens, UniProt Q6PHR2)
In short: as §1

LCK = LCK (Homo sapiens, UniProt P06239)
In short: as §1

ERN1/IRE1 = ERN1/IRE1 (Homo sapiens, UniProt O75460)
In short: as §1

FAK/PTK2 = FAK/PTK2 (Homo sapiens, UniProt Q05397)
In short: as §1

MARK2/PAR-1Ba = MARK2/PAR-1Ba (Homo sapiens, UniProt Q7KZI7)
In short: as §1

STK32B/YANK2 = STK32B/YANK2 (Homo sapiens, UniProt Q9NY57)
In short: as §1

[1] = read-out: % Enzyme Activity (relative to DMSO controls) / TP-0005801 (0.3µM) / Data 1
[2] = read-out: % Enzyme Activity (relative to DMSO controls) / TP-0005801 (0.3µM) / Data 2

Sequence of PHKg1 (Q16816 whole entry): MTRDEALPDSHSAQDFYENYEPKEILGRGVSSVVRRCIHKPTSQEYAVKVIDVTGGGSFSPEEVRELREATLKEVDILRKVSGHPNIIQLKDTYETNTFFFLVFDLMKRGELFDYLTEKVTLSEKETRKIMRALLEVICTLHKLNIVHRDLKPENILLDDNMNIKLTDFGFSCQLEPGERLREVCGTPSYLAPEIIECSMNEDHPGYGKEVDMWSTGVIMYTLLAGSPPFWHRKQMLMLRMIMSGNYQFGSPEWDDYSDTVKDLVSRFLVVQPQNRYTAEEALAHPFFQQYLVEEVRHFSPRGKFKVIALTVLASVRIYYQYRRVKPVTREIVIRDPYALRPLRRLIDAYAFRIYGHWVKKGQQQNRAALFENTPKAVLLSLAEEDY
Sequence of BMX/ETK (P51813 whole entry): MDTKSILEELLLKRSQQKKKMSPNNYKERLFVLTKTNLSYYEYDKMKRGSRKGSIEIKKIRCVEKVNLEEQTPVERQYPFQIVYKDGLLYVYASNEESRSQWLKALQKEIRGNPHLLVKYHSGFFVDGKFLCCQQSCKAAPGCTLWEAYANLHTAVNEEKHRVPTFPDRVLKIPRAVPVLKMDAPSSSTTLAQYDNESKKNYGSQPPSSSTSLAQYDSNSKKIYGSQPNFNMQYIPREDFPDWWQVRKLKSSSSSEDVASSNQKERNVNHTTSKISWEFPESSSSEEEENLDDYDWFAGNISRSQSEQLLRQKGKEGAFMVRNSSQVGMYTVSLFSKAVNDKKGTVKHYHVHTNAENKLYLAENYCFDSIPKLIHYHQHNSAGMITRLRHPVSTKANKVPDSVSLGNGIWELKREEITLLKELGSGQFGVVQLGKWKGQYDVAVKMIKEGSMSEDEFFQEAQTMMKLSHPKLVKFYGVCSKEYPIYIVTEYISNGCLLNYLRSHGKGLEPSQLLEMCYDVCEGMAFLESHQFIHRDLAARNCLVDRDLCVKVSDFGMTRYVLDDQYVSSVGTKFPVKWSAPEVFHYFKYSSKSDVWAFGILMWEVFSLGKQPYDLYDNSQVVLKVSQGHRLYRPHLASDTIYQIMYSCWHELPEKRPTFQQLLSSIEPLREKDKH
Sequence of ERN1/IRE1 (O75460 whole entry): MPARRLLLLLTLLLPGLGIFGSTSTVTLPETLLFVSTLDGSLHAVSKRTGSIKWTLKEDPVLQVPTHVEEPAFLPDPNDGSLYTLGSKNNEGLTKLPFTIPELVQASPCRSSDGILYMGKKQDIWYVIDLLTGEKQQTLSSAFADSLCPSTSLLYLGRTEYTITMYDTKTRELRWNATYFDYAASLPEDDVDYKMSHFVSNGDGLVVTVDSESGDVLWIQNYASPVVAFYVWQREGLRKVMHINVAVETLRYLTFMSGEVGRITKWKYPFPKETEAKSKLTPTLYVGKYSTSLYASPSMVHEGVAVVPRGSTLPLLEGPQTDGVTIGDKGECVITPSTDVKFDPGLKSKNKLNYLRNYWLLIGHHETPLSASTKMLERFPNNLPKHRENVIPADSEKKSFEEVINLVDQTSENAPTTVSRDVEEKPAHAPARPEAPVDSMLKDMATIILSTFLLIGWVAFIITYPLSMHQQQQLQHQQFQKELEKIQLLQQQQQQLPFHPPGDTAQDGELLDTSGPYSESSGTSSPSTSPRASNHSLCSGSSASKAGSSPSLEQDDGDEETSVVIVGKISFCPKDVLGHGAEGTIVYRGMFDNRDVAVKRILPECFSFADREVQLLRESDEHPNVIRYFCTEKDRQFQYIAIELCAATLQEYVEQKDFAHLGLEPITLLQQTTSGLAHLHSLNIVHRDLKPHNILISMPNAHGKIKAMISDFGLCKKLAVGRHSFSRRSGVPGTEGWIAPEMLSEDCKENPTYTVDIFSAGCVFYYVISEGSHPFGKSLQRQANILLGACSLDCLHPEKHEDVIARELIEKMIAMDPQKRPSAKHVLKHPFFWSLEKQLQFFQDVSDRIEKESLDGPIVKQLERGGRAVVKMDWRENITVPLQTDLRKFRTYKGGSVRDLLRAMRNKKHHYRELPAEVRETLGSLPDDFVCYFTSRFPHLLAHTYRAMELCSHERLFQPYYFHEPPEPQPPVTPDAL
Sequence of CAMKK1 (Q8N5S9 whole entry): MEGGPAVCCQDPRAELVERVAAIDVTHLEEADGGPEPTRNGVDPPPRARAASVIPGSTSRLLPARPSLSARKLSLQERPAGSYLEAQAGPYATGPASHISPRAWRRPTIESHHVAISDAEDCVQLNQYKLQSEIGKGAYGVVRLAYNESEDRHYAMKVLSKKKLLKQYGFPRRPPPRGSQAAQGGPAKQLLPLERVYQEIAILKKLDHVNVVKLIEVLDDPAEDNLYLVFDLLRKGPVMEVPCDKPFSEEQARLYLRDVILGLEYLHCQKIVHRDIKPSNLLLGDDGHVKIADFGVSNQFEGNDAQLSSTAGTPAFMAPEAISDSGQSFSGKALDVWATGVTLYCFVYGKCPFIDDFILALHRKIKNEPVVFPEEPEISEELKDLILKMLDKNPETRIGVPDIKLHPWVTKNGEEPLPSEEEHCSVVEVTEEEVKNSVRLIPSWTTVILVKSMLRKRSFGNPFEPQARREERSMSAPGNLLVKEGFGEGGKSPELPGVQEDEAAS
Sequence of LCK (P06239 whole entry): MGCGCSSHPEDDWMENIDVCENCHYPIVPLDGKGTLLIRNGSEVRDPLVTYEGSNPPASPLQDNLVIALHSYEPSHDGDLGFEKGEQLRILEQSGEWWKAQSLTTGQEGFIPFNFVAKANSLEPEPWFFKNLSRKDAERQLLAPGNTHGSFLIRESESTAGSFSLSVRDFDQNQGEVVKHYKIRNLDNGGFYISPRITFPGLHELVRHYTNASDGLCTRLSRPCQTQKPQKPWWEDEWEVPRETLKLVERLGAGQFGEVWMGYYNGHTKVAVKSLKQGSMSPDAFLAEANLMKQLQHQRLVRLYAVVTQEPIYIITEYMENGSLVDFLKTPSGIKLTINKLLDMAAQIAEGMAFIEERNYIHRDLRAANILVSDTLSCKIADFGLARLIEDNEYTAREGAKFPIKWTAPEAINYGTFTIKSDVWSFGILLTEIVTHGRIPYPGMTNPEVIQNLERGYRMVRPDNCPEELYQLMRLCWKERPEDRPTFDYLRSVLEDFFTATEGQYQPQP
Sequence of STK32B/YANK2 (Q9NY57 whole entry): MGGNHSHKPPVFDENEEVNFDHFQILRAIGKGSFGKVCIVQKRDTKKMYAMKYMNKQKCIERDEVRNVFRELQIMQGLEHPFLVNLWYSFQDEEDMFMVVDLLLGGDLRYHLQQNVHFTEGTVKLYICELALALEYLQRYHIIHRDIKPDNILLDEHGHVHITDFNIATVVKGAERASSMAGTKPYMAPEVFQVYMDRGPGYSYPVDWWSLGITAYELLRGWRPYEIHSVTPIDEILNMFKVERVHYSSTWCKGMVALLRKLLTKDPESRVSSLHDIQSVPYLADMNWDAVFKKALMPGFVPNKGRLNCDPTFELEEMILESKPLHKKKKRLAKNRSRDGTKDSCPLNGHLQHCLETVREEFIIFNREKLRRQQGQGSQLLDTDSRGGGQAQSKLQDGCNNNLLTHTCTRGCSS
Sequence of SRMS (Q9H3Y6 whole entry): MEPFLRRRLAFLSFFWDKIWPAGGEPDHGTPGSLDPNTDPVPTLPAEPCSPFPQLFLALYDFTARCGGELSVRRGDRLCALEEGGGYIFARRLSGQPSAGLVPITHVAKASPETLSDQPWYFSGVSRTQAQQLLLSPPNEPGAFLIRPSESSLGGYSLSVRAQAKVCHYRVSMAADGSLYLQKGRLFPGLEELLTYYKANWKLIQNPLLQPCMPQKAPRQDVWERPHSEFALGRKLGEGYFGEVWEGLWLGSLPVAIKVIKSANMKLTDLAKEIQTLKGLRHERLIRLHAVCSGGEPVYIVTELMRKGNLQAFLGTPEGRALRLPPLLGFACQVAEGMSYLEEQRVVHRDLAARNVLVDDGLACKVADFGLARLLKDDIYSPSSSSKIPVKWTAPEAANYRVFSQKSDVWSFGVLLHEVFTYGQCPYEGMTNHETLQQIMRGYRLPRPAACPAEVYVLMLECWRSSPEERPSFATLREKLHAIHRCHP
Sequence of ULK3 (Q6PHR2 whole entry): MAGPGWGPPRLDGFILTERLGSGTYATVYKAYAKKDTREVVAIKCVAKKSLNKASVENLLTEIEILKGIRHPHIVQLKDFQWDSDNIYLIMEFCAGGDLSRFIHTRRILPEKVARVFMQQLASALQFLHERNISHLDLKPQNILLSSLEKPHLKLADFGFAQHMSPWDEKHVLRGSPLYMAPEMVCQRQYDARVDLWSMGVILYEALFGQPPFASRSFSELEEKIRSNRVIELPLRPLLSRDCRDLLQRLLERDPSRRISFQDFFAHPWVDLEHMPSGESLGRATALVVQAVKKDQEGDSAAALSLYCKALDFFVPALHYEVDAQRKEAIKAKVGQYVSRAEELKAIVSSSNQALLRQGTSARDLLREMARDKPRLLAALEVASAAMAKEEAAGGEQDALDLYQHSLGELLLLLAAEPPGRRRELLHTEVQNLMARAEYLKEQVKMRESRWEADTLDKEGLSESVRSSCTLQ
T1 sequence (P36507 whole entry): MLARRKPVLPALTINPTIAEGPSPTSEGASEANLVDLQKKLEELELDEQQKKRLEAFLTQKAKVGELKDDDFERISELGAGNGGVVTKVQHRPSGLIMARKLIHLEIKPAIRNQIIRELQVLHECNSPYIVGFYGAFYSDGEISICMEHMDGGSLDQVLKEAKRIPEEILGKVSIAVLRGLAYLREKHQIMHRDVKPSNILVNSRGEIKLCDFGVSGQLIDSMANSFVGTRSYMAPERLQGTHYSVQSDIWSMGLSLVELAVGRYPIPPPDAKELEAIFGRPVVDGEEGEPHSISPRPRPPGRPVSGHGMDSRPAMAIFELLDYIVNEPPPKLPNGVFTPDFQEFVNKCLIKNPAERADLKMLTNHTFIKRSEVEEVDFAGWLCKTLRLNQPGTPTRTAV

Question: Which results are given for `COc1cc(N2CCN(C)CC2)c(C)cc1Nc1ncc(Br)c(Nc2cccnc2N(C)C)n1` [TP-5801]?
Answer: remaining activity at 0.3 µM (SRMS; [1]): 89.9%; remaining activity at 0.3 µM (SRMS; [2]): 89.5%; remaining activity at 0.3 µM (CDK1/cyclin E; [1]): 97.2%; remaining activity at 0.3 µM (CDK1/cyclin E; [2]): 94.9%; remaining activity at 0.3 µM (JAK3; [1]): 29.3%; remaining activity at 0.3 µM (JAK3; [2]): 28.7%; remaining activity at 0.3 µM (BMX/ETK; [1]): 115%; remaining activity at 0.3 µM (BMX/ETK; [2]): 114%; remaining activity at 0.3 µM (MEK2; [1]): 87.6%; remaining activity at 0.3 µM (MEK2; [2]): 87.4%; remaining activity at 0.3 µM (CDK6/cyclin D3; [1]): 103%; remaining activity at 0.3 µM (CDK6/cyclin D3; [2]): 101%; remaining activity at 0.3 µM (PHKg1; [1]): 30.6%; remaining activity at 0.3 µM (PHKg1; [2]): 29.7%; remaining activity at 0.3 µM (DYRK2; [1]): 94.2%; remaining activity at 0.3 µM (DYRK2; [2]): 90.5%; remaining activity at 0.3 µM (ACK1; [1]): 1.69%; remaining activity at 0.3 µM (ACK1; [2]): 1.45%; remaining activity at 0.3 µM (WEE1; [1]): 94.2%; remaining activity at 0.3 µM (WEE1; [2]): 93.6%; remaining activity at 0.3 µM (PKCa; [1]): 98.6%; remaining activity at 0.3 µM (PKCa; [2]): 98%; remaining activity at 0.3 µM (ITK; [1]): 107%; remaining activity at 0.3 µM (ITK; [2]): 103%; remaining activity at 0.3 µM (CAMKK1; [1]): 77.1%; remaining activity at 0.3 µM (CAMKK1; [2]): 74%; remaining activity at 0.3 µM (MYO3b; [1]): 57.7%; remaining activity at 0.3 µM (MYO3b; [2]): 56.8%; remaining activity at 0.3 µM (ULK3; [1]): 43.8%; remaining activity at 0.3 µM (ULK3; [2]): 40.1%; remaining activity at 0.3 µM (LCK; [1]): 101%; remaining activity at 0.3 µM (LCK; [2]): 99.4%; remaining activity at 0.3 µM (ERN1/IRE1; [1]): 83%; remaining activity at 0.3 µM (ERN1/IRE1; [2]): 82.7%; remaining activity at 0.3 µM (FAK/PTK2; [1]): 12.3%; remaining activity at 0.3 µM (FAK/PTK2; [2]): 11.4%; remaining activity at 0.3 µM (MARK2/PAR-1Ba; [1]): 93.2%; remaining activity at 0.3 µM (MARK2/PAR-1Ba; [2]): 92.1%; remaining activity at 0.3 µM (STK32B/YANK2; [1]): 96.4%; remaining activity at 0.3 µM (STK32B/YANK2; [2]): 94.8%
